Assay results reported in PubChem BioAssay AID256 (DTP/NCI, 2004).
Where “and” joins values, the source holds several entries; their conditions need not be identical. Identical values can stand only once. Inconclusive results and toxic doses are left out.

Test system: CD2F1 mice, L1210 leukemia ip, survival T/C
Assay: NCI In Vivo Anticancer Drug Screen. Data for tumor model L1210 Leukemia (intraperitoneal) in CD2F1 (CDF1) mice
Settings: higher = longer survival
Summary of the method: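 Ratio T/C, where T is the treated-group value and C the vehicle-dosed control value, from mice implanted with a transplantable tumor.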

[1] = endpoint: mean survival time, dose: 50.0 mg/kg/injection, schedule: Q01DX009 (ip), vehicle: saline with Tween-80
[2] = endpoint: mean survival time, dose: 100.0 mg/kg/injection, schedule: Q04DX003 (ip), vehicle: saline with Tween-80
[3] = endpoint: mean survival time, dose: 200.0 mg/kg/injection, schedule: Q04DX003 (ip), vehicle: saline with Tween-80
[4] = endpoint: mean survival time, dose: 400.0 mg/kg/injection, schedule: Q04DX003 (ip), vehicle: saline with Tween-80
[5] = endpoint: mean survival time, dose: 100.0 mg/kg/injection, schedule: Q04DX002 (ip), vehicle: saline with Tween-80
[6] = endpoint: mean survival time, dose: 200.0 mg/kg/injection, schedule: Q04DX002 (ip), vehicle: saline with Tween-80
[7] = endpoint: mean survival time, dose: 400.0 mg/kg/injection, schedule: Q04DX002 (ip), vehicle: saline with Tween-80

Structure (SMILES): Nc1ncc(C2OC(CO)C(O)C2O)c(N)n1 (stereo not given)
- T/C (endpoint: mean survival time, dose: 25.0 mg/kg/injection, schedule: Q01DX009 (ip), vehicle: water): 91 % of control
- T/C (endpoint: mean survival time, dose: 50.0 mg/kg/injection, schedule: Q01DX009 (ip), vehicle: water): 100 % of control
- T/C (endpoint: mean survival time, dose: 100.0 mg/kg/injection, schedule: Q01DX009 (ip), vehicle: water): 95 % of control
- T/C (endpoint: mean survival time, dose: 200.0 mg/kg/injection, schedule: Q01DX009 (ip), vehicle: water): 88 % of control
- T/C (endpoint: mean survival time, dose: 400.0 mg/kg/injection, schedule: Q01DX009 (ip), vehicle: water): 91 % of control

Structure (SMILES): Cc1cc2c(C(C)C)c(O)c(O)cc2c(O)c1-c1c(C)cc2c(C(C)C)c(O)c(O)cc2c1O
- T/C (endpoint: mean survival time, dose: 12.5 mg/kg/injection, schedule: Q01DX001 (ip), vehicle: saline with Tween-80): 105 % of control
- T/C (endpoint: mean survival time, dose: 12.5 mg/kg/injection, schedule: Q01DX009 (ip), vehicle: saline with Tween-80): 100 % of control
- T/C (endpoint: mean survival time, dose: 25.0 mg/kg/injection, schedule: Q01DX001 (ip), vehicle: saline with Tween-80): 102 % of control
- T/C (endpoint: mean survival time, dose: 25.0 mg/kg/injection, schedule: Q01DX009 (ip), vehicle: saline with Tween-80): 94 % of control
- T/C (endpoint: mean survival time, dose: 50.0 mg/kg/injection, schedule: Q01DX001 (ip), vehicle: saline with Tween-80): 103 % of control
- T/C [1]: 90 % of control

Structure (SMILES): COc1cccc(C2=CCCCCC2)c1OC
- T/C [2]: 98 % of control
- T/C [3]: 101 % of control
- T/C [4]: 102 % of control

Structure (SMILES): CC1(C2CC(=O)N(OCc3ccccc3)C2=O)OCCO1 (stereo not given)
- T/C (endpoint: mean survival time, dose: 100.0 mg/kg/injection, schedule: Q04DX003 (ip), vehicle: other): 89 % of control
- T/C (endpoint: mean survival time, dose: 200.0 mg/kg/injection, schedule: Q04DX003 (ip), vehicle: other): 87 % of control
- T/C (endpoint: mean survival time, dose: 400.0 mg/kg/injection, schedule: Q04DX003 (ip), vehicle: other): 88 % of control

Structure (SMILES): COc1ccc2c(c1)C1(C)C/C(=C\c3ccoc3)C(=O)C(C)C1CC2 (stereo not given)
- T/C (endpoint: mean survival time, dose: 100.0 mg/kg/injection, schedule: Q01DX001 (ip), vehicle: saline): 94 % of control
- T/C (endpoint: mean survival time, dose: 200.0 mg/kg/injection, schedule: Q01DX001 (ip), vehicle: saline): 94 % of control
- T/C (endpoint: mean survival time, dose: 400.0 mg/kg/injection, schedule: Q01DX001 (ip), vehicle: saline): 102 % of control

Structure (SMILES): CC1=C(/C=C/C(=O)CC(O)(C(F)(F)F)C(F)(F)F)C(C)(C)CCC1
- T/C [2]: 104 % of control
- T/C [3]: 98 % of control
- T/C [4]: 101 % of control

Structure (SMILES): O=C1CCC(C(=O)Nc2ccc(Cl)cc2Cl)N1 (stereo not given)
- T/C (endpoint: mean survival time, dose: 25.0 mg/kg/injection, schedule: Q04DX002 (ip), vehicle: saline with Tween-80): 98 % of control
- T/C (endpoint: mean survival time, dose: 50.0 mg/kg/injection, schedule: Q04DX002 (ip), vehicle: saline with Tween-80): 98 % of control
- T/C [5]: 98 % of control
- T/C [6]: 118 % of control
- T/C [7]: 97 % of control

Structure (SMILES): CN(C)c1nc(N)c2nonc2n1
- T/C (endpoint: mean survival time, dose: 12.5 mg/kg/injection, schedule: Q01DX005 (ip), vehicle: other): 97 % of control
- T/C (endpoint: mean survival time, dose: 25.0 mg/kg/injection, schedule: Q01DX005 (ip), vehicle: other): 97 % of control
- T/C (endpoint: mean survival time, dose: 50.0 mg/kg/injection, schedule: Q01DX005 (ip), vehicle: other): 92 % of control
- T/C (endpoint: mean survival time, dose: 100.0 mg/kg/injection, schedule: Q01DX005 (ip), vehicle: other): 97 % of control
- T/C (endpoint: mean survival time, dose: 200.0 mg/kg/injection, schedule: Q01DX005 (ip), vehicle: other): 95 % of control

Structure (SMILES): [N-]=[N+]=[N-]
- T/C (endpoint: median survival time, dose: 0.75 mg/kg/injection, schedule: Q01DX009 (ip), vehicle: saline): 101 % of control
- T/C (endpoint: median survival time, dose: 1.5 mg/kg/injection, schedule: Q01DX009 (ip), vehicle: saline): 101 % of control
- T/C (endpoint: median survival time, dose: 3.0 mg/kg/injection, schedule: Q01DX009 (ip), vehicle: saline): 93 % of control
- T/C (endpoint: median survival time, dose: 6.0 mg/kg/injection, schedule: Q01DX009 (ip), vehicle: saline): 103 % of control
- T/C (endpoint: median survival time, dose: 12.0 mg/kg/injection, schedule: Q01DX009 (ip), vehicle: saline): 92 % of control

Structure (SMILES): Nc1ccc(S(=O)(=O)c2ccc(Nc3ccccc3)c(N)c2)cc1
- T/C [5]: 97 % of control
- T/C [6]: 94 % of control
- T/C [7]: 97 % of control

Structure (SMILES): O=[N+]([O-])c1ccc2nocc2c1
- T/C (endpoint: mean survival time, dose: 25.0 mg/kg/injection, schedule: Q04DX003 (ip), vehicle: Klucel (hydroxypropylcellulose) (HPC)): 105 % of control
- T/C (endpoint: mean survival time, dose: 50.0 mg/kg/injection, schedule: Q04DX003 (ip), vehicle: Klucel (hydroxypropylcellulose) (HPC)): 97 % of control
- T/C (endpoint: mean survival time, dose: 100.0 mg/kg/injection, schedule: Q04DX003 (ip), vehicle: Klucel (hydroxypropylcellulose) (HPC)): 101 % of control

Structure (SMILES): CCN(CC)C(=O)[S-].CCN(CC)C(=O)[S-].[Ni+2]
- T/C (endpoint: mean survival time, dose: 100.0 mg/kg/injection, schedule: Q01DX001 (ip), vehicle: saline with Tween-80): 94 % of control
- T/C (endpoint: mean survival time, dose: 200.0 mg/kg/injection, schedule: Q01DX001 (ip), vehicle: saline with Tween-80): 98 % of control
- T/C (endpoint: mean survival time, dose: 400.0 mg/kg/injection, schedule: Q01DX001 (ip), vehicle: saline with Tween-80): 102 % of control

Structure (SMILES): C=C(C)CC1(CC)C(=O)NC(=S)NC1=O
- T/C [1]: 102 % of control
- T/C (endpoint: mean survival time, dose: 100.0 mg/kg/injection, schedule: Q01DX009 (ip), vehicle: saline with Tween-80): 101 % of control

Structure (SMILES): COc1cccc2c1C(=O)c1c(O)c3c(c(O)c1C2=O)C[C@](O)(C(=O)CO)CC3OC1CC(N)C(OC2CCCCO2)C(C)O1 (stereo not given in full)
- T/C (endpoint: median survival time, dose: 3.0 mg/kg/injection, schedule: Q01DX009 (ip), vehicle: water): 123 % of control and 227 % of control
- T/C (endpoint: median survival time, dose: 6.0 mg/kg/injection, schedule: Q01DX009 (ip), vehicle: water): 91 % of control

Structure (SMILES): CN1CCN(c2ccc3nc(-c4ccc5nc(-c6ccc(O)cc6)[nH]c5c4)[nH]c3c2)CC1
- T/C (endpoint: mean survival time, dose: 6.25 mg/kg/injection, schedule: Q01DX009 (ip), vehicle: saline): 124 % of control
- T/C (endpoint: mean survival time, dose: 12.5 mg/kg/injection, schedule: Q01DX009 (ip), vehicle: saline): 124 % of control
- T/C (endpoint: mean survival time, dose: 25.0 mg/kg/injection, schedule: Q01DX009 (ip), vehicle: saline): 183 % of control
- T/C (endpoint: mean survival time, dose: 50.0 mg/kg/injection, schedule: Q01DX009 (ip), vehicle: saline): 238 % of control and 314 % of control
- T/C (endpoint: mean survival time, dose: 100.0 mg/kg/injection, schedule: Q01DX009 (ip), vehicle: saline): 294 % of control
- T/C (endpoint: median survival time, dose: 6.25 mg/kg/injection, schedule: Q01DX009 (ip), vehicle: saline): 124 % of control
- T/C (endpoint: median survival time, dose: 12.5 mg/kg/injection, schedule: Q01DX009 (ip), vehicle: saline): 117 % of control and 120 % of control
- T/C (endpoint: median survival time, dose: 18.0 mg/kg/injection, schedule: Q01DX005 (ip), vehicle: saline): 119 % of control
- T/C (endpoint: median survival time, dose: 18.0 mg/kg/injection, schedule: Q01DX005 (iv), vehicle: saline): 116 % of control
- T/C (endpoint: median survival time, dose: 37.0 mg/kg/injection, schedule: Q01DX005 (iv), vehicle: saline): 115 % of control
- T/C (endpoint: median survival time, dose: 50.0 mg/kg/injection, schedule: Q01DX005 (oral), vehicle: saline): 101 % of control
- T/C (endpoint: median survival time, dose: 50.0 mg/kg/injection, schedule: Q01DX009 (ip), vehicle: saline): 226 % of control and 344 % of control
- T/C (endpoint: median survival time, dose: 75.0 mg/kg/injection, schedule: Q01DX005 (ip), vehicle: saline): 151 % of control
- T/C (endpoint: median survival time, dose: 100.0 mg/kg/injection, schedule: Q01DX005 (oral), vehicle: saline): 96 % of control
- T/C (endpoint: median survival time, dose: 150.0 mg/kg/injection, schedule: Q01DX005 (ip), vehicle: saline): 348 % of control
- T/C (endpoint: median survival time, dose: 200.0 mg/kg/injection, schedule: Q01DX005 (oral), vehicle: saline): 94 % of control
- T/C (endpoint: median survival time, dose: 200.0 mg/kg/injection, schedule: Q01DX009 (ip), vehicle: saline): 116 % of control and 91 % of control
- T/C (endpoint: median survival time, dose: 400.0 mg/kg/injection, schedule: Q01DX005 (oral), vehicle: saline): 96 % of control
- T/C (endpoint: median survival time, dose: 800.0 mg/kg/injection, schedule: Q01DX005 (oral), vehicle: saline): 94 % of control
